{"source": "patent US7906486B2", "about": "“Method of treating or preventing tissue deterioration, injury or damage due to disease of mucosa” (SciClone Pharmaceuticals, Inc., priority 2007, dated 2011)", "test_system": "oral mucositis induced by fractionated radiation (eight doses of 7.5 Gy, left buccal cheek pouch)", "assay": "Oral mucositis induced by fractionated radiation in hamsters, mucositis scoring (Example 3, SCI-03)", "assay_type": "in vivo, Syrian Golden Hamsters", "design": "key: 0: Pouch completely healthy. No erythema or vasodilation.; 1: Light to severe erythema and vasodilation. No erosion of mucosa.; 2: Severe erythema and vasodilation. Erosion of superficial aspects of mucosa leaving denuded areas. Decreased stippling of mucosa.; 3: Formation of off-white ulcers in one or more places. Ulcers may have a yellow/gray due to pseudomembrane. Cumulative size of ulcers should equal about ¼ of the pouch. Severe erythema and vasodilation.; 4: Cumulative seize of ulcers should equal about ½ of the pouch. Loss of pliability. Severe erythema and vasodilation.; 5: Virtually all of pouch is ulcerated. Loss of pliability (pouch can only partially be extracted from mouth)", "excerpt": "The fractionated radiation model in hamsters, developed by the Principal Investigator, has proven to be an accurate, efficient and cost-effective technique to provide a preliminary evaluation of anti-mucositis compounds. In this model, hamsters receive 8 doses of 7.5 Gy to the left cheek pouch on days 0, 1, 2, 3, […], rather than the single dose of 40 Gy on day 0 that is used in acute radiation studies. The rationale for using this scheduling for the radiation is that it more closely resembles the clinical courses of radiotherapy given to cancer patients. The course of mucositis in this model is well defined and results in peak mucositis scores approximately 14-16 days following radiation. Mortality (generally from the side effects of anesthesia) in the fractionated radiation model is slightly higher than that seen in the acute radiation model and group sizes are increased (to 10 per group) to allow for this.\n(§1) Forty (40) male Syrian Golden Hamsters were given eight doses of radiation of 7.5 Gy each directed to their left buccal cheek pouch on days 0, 1, 2, 3, 6, 7, 8 and 9. This was accomplished by anesthetizing the animals and everting the left buccal pouch, while protecting the rest of the animal's bodies with a lead shield. Test materials were given by sub-cutaneous injection once daily as detailed in Table 9. Mucositis was evaluated clinically starting on day 7, and continuing on alternate days until day 35. Test articles were given as outlined Table 9, Groups 1 and 2 were dosed from Day −1 to Day 29, Group 3 was dosed on the days of radiation only, Group 4 was dosed on the days between Day −15 and Day 29 on which no radiation is given (Day −1, Day 4, Day 5 and Day 10 to Day 29).\nThe effect on mucositis of each drug treatment compared to placebo was assessed according to the following parameters:\nOn each evaluation day, the number of animals with a blinded mucositis score of ≧3 in each drug treatment group was compared to the control group. Differences were compared on a cumulative basis and statistical significance was determined by chi-square analysis. Efficacy, in this analysis, is defined by a significant reduction in the number of days that a group of animals had ulcerations (scores ≧3) when compared to the control group.\nFor each evaluation day the scores of the control group were compared to those of the treated groups using non-parametric rank sum analysis. Treatment success was considered as a statistically significant lowering of scores in the treated group on 2 or more days from day 6 to day 28.\nas §1, with “daily at 8:00 am” for “daily”, “9. […]” for “9. Mucositis was evaluated clinically starting on day 7, and continuing on alternate days until day 35.”, “2 was” for “2 were”, “radiation only (days 0-3 and days 6-10),” for “radiation only,”, “Day −1” for “Day −15”, “Day 4 to” for “Day 4,”\nRadiation was generated with a Philips 160 kVp (kilovolt potential) (18.75-ma) X-ray source at a focal distance of 30 cm, with a 3.0 mm hardened Al filtration system. Irradiation was targeted to the left buccal pouch mucosa at a rate of 3.32 Gy/minute. […] Using this calibration, the energy received by each animal at each radiation dose was approximately 64.5 nC (nanoCoulombs) at each time point. Prior to irradiation, animals were anesthetized with an intraperitoneal injection of ketamine (160 mg/kg) and xylazine (8 mg/kg). The left buccal pouch was everted, fixed and isolated using a lead shield.\nThe mucositis score, weight change and survival were measured throughout the study as described above. […]", "note": "Values joined by “and” are separate entries in the source; they are usually repeats but may differ in a detail not shown here. Equal values may be shown once.", "data": [{"smiles": "N[C@H](CCC(=O)N[C@@H](Cc1c[nH]c2ccccc12)C(=O)O)C(=O)O", "note": "[SCV-07, γ-D-glutamyl-L-tryptophan]", "values": [{"measurement": "Mucositis score", "setting": "Group 2, day 7, individual animals (two score lines each)", "value": 0}, {"measurement": "Mucositis score", "setting": "Group 2, day 9, individual animals (two score lines each)", "value": "1 (5×) and 0 (2×)"}, {"measurement": "Mucositis score", "setting": "Group 2, day 11, individual animals (two score lines each)", "value": 1}, {"measurement": "Mucositis score", "setting": "Group 2, day 13, individual animals (two score lines each)", "value": 3}, {"measurement": "Mucositis score", "setting": "Group 2, day 15, individual animals (two score lines each)", "value": 3}, {"measurement": "Mucositis score", "setting": "Group 2, day 17, individual animals (two score lines each)", "value": 3}, {"measurement": "Mucositis score", "setting": "Group 2, day 21, individual animals (two score lines each)", "value": 3}, {"measurement": "Mucositis score", "setting": "Group 2, day 23, individual animals (two score lines each)", "value": 3}, {"measurement": "Mucositis score", "setting": "Group 2, day 25, individual animals (two score lines each)", "value": 3}, {"measurement": "Mucositis score", "setting": "Group 2, day 27, individual animals (two score lines each)", "value": 3}, {"measurement": "Mucositis score", "setting": "Group 2, day 31, individual animals (two score lines each)", "value": "0 (2×) and 1 (3×)"}, {"measurement": "Mucositis score", "setting": "Group 2, day 33, individual animals (two score lines each)", "value": 1}, {"measurement": "Mucositis score", "setting": "Group 2, day 35, individual animals (two score lines each)", "value": "1 (3×) and 0 (4×)"}]}]}
